The test system of data set [1] is A549 (Lung cancer). Nature of the data set: MTT assay, A549. It counts as cell-based. The conditions noted are these: Homo sapiens, read-out: A549 IC50. The method, then:
A431 (Skin cancer), Colo-205 (Colon cancer), A549 (Lung cancer) cell lines were obtained from National Center for Cell science (NCCS), Pune, India. DMEM (Dulbeccos Modified Eagles Medium), MTT [3-(4,5-dimethylthiazol-2-yl)-2,5-diphenyl tetrazolium bromide], Trypsin, EDTA were purchased from Sigma Chemicals Co (St. Louis, Mo.), Fetal bovine serum were purchased from Arrow labs, 96 well flat bottom tissue culture plates were purchased from Tarson.
A431, Colo-205, A549 cell lines were grown as adherent cells in DMEM media supplemented with 10% fetal bovine serum, 100 μg/ml penicillin, 200 μg/ml streptomycin, 2 mM L-glutamine, and culture was maintained in a humidified atmosphere with 5% CO2. Stock solution of 10 mg/ml was prepared for test molecules in DMSO. From the stock, various dilutions were made with sterile water to get required concentration. A431, Colo-205, A549 cell lines were seeded at a density of 1×10^4 cells (cell number was determined by Trypan blue exclusion dye method) per each well in 100 μl of DMEM supplemented with 10% FBS. 12 hrs after seeding, above media was replaced with fresh DMEM supplemented with 10% FBS. Then, 10 μl sample from above stock solutions were added to each well in triplicates which gives final concentration of 100, 50, 25, 10 μg/well. The above cells were incubated for 48 hrs at 37° C. with 5% CO2. After 48 hrs incubation the above media was replaced with 100 μl of fresh DMEM with out FBS and to this 10 μl of MTT (5 mg dissolved in 1 ml of PBS) was added and incubated for 3 hrs at 37° C. with 5% CO2. After 3 hrs of incubation, the above media was removed with multi channel pipette, then 200 μl of DMSO was added to each well and incubated at 37° C. for 15 min. Finally, the plate was read at 570 nm using spectrophotometer (Spectra Max, Molecular devices).

Data set [2] has as its target T1, porcine pancreatic α-amylase (Sus scrofa, UniProt P00690).
T1 construct: α-amylase [EC 3.2.1.1) Type VI B: from porcine pancreas]; purchased Sigma Chemical Co., St Louis, Mo., USA; host or cells: porcine pancreas (natural source)
T1 sequence (P00690 16-511): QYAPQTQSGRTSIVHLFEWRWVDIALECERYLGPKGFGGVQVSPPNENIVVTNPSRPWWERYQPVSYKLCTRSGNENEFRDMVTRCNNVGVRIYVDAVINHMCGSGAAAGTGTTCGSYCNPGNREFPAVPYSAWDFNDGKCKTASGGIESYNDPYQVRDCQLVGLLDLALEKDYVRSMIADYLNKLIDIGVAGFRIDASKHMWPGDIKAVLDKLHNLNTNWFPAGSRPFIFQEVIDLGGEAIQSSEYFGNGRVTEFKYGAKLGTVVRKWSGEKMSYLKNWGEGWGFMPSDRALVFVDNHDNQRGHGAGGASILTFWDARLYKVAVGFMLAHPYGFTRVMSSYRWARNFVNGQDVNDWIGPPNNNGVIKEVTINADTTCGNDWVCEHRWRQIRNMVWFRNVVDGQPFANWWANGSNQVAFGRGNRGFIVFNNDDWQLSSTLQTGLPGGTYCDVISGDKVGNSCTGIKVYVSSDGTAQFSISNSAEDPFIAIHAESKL
Nature of the data set: α-Amylase inhibition assay. Format: biochemical. The conditions noted are these: 10 mg per ml; for Maltose released: a/b marks the respective control (Control-1 2.147, Control-2 3.429); for inhibition at 10000 µg/mL (stock): 0.05 h, calculated from maltose released vs respective control. From the text: (§1) Chemicals: α-Glucosidase [(EC 3.2.1.20) Type I: from bakers yeast], rat intestinal acetone powder (as a source of crude intestinal α-glucosidase), α-amylase [EC 3.2.1.1) Type VI B: from porcine pancreas], p-nitrophenyl α-D-glucopyranoside, 3,5-dinitro salicylic acid, soluble potato starch and 1-deoxyrojirimycine, were purchased from Sigma Chemical Co., St Louis, Mo., USA. Other chemicals of analytical grade were procured from indigenous manufacturers.
a-Amylase Inhibition Assay: The assay method was adopted from Ali et al. (2006) and modified accordingly to suite microplate reading. In brief, 40 μL of test samples (10 mg/mL DMSO) were reconstituted in 160 μL of 20 mM phosphate buffer (pH 6.9) containing 6.7 mM sodium chloride in 2 mL Eppendorf tubes and incubated with 200 μL of porcine pancreatic α-amylase) (4 U/mL prepared in ice cold distilled water) for 5 min. The reaction was started by the addition of 400-μL soluble potato starch solution (0.5% w/v in 20 mM phosphate buffer, pH 6.9). Exactly 3 min after incubation, 400 μL DNS color reagent (1.0 g of 3,5-dinitrosalicylic acid, 30 g of sodium potassium tartrate and 20 mL of 2 N NaOH to a final volume of 100 mL in distilled water) was added. Closed tubes were placed in a water bath (85-90° C.) for 10 min to develop color and cooled thereafter. 50 μL of reaction mixtures was diluted with 175 μL of distilled water in a 96-well microplate. α-Amylase activity was determined by measuring the absorbance of the mixture at 540 nm spectrophotometrically as above. Individual blanks were prepared to correct for the background absorbance due to test samples. In this case DNS solution was added in tubes before addition of substrate. The percentage inhibition of enzyme activity was calculated as above. All the tests were run in duplicate in this assay.

The target in data set [3] is T2, yeast α-glucosidase (Saccharomyces cerevisiae, UniProt P53341).
T2 construct: α-Glucosidase [(EC 3.2.1.20) Type I: from bakers yeast]
T2 sequence (P53341 whole entry): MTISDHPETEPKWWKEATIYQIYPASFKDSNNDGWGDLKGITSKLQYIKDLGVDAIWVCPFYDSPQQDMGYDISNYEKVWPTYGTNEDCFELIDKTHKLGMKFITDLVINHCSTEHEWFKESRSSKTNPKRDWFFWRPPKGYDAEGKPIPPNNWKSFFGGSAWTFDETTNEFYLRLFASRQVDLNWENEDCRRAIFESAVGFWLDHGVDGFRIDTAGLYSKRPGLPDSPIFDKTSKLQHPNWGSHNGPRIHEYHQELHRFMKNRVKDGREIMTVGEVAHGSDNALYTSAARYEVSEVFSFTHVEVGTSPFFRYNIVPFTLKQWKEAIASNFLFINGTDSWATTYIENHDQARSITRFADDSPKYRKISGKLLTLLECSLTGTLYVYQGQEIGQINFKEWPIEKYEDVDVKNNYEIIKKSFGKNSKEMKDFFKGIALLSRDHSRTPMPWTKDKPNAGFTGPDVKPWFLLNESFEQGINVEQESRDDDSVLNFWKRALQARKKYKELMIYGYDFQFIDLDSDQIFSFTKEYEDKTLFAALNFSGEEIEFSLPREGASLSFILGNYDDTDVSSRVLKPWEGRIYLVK
Nature of the data set: In-vitro yeast α-glucosidase inhibition assay. It counts as biochemical, bakers yeast. The conditions noted are these: for inhibition at 39.063 µg/mL / inhibition at 78.125 µg/mL / inhibition at 156.25 µg/mL / inhibition at 312.5 µg/mL / inhibition at 625 µg/mL / inhibition at 1250 µg/mL / inhibition at 2500 µg/mL / inhibition at 5000 µg/mL: yeast α-glucosidase, read-out: % Inhibition (Mean ± S.E); for inhibition at 39.063 µg/mL: 0.039063 mg/ml; for inhibition at 78.125 µg/mL: 0.078125 mg/ml; for inhibition at 156.25 µg/mL: 0.15625 mg/ml; for inhibition at 312.5 µg/mL: 0.3125 mg/ml; for inhibition at 625 µg/mL: 0.625 mg/ml; for inhibition at 1250 µg/mL: 1.25 mg/ml; for inhibition at 2500 µg/mL: 2.5 mg/ml; for inhibition at 5000 µg/mL: 5 mg/ml.
Description: as §1
In-vitro a-Glucosidase Inhibition Assay: Yeast and intestinal a-glucosidase inhibitory activities were determined as per reported methods (Babu et al., 2004; Mc Dougall et al., 2005). Rat intestinal acetone powder in normal saline (100% w/v) was sonicated properly and the supernatant was used as a source of crude intestinal a-glucosidase after centrifugation. In brief, 20 μl, of test samples (100 mg/ml DMSO solution) were reconstituted in 100 μl of 100 mM-Phosphate buffer (pH 6.8) in a 96-well microplate and incubated with 50 μl yeast a-glucosidase (0.76 μ/ml in same buffer) or crude intestinal a-glucosidase for 5 min before 50-μl substrate (5 mM, […] prepared in same buffer) was added. Release of p-nitrophenyol was measured at 405 nm spectrophotometrically (Spectra Mas Plus 384, Molecular Device corporation, Sunnyvale, Calif., USA) 5 min after incubation with substrate, individual blank for test samples were prepared to correct background absorbance where the substrate was replaced with 50 μl of buffer. The control sample contained 20 μl DMSO in place of test samples. The percentage of enzyme inhibition was calculated as (A−B/A)×100 where A is represents the absorbance of the control without test samples, and B represents the absorbance in the presence of test samples. […] The IC50 values were calculated by applying logarithmic regression analysis from the mean inhibitory values.

Values after ≈ are worked out from the molar mass of the structure shown. “Also recorded” adds a separate entry of the source. Like-named read-outs stand apart in the source and are kept apart here.

As usually defined, the IC50 is the midpoint of a concentration-inhibition curve. As a reminder, the melting point is the temperature of the solid-liquid transition. For orientation: inhibition means the drop in the measured response relative to a control, in per cent. `Cc1sc2nc3c(c(N)c2c1C)CCC3` [BN-1, 2,3-dimethyl-6,7-dihydro-5H-cyclopenta[b]thieno[3,2-e]pyridin-4-amine] gave a melting point of 231 °C. The IC50 in data set [1] (A549, MTT, 48 hrs) was determined as 190 µg/mL (≈ 870 µM). Moreover, in data set [2], the Maltose released was found to be 2.20 mg/mL and the inhibition at 10000 µg/mL (stock) was -3.12%.

The molecule `Cc1sc2nc3c(c(N)c2c1C)CCCC3` [BN-2, 2,3-dimethyl-5,6,7,8-tetrahydrothieno[2,3-b]quinolin-4-amine] returned a melting point of 210 °C. Also, in data set [1] (A549, MTT, 48 hrs), the IC50 came to 50.1 µg/mL (≈ 216 µM). Also, in data set [3], the “Yeast α-glucosidase enzyme inhibitory activity (in words)” value is recorded as “strong significant inhibitory activity”, the inhibition at 39.063 µg/mL is 15.3 ± 2.69%, the inhibition at 78.125 µg/mL turned out to be 20.1 ± 1.37% and the inhibition at 156.25 µg/mL stood at 25.9 ± 0.44%. For the same molecule, in data set [3], the inhibition at 312.5 µg/mL was 33.4 ± 0.76%, the inhibition at 625 µg/mL was 39.2 ± 0.87%, the inhibition at 1250 µg/mL came to 43.9 ± 1.92% and the inhibition at 2500 µg/mL was found to be 53 ± 1.13%. For the same molecule, the inhibition at 5000 µg/mL in data set [3] stood at 56.54 ± 0.28%. Besides, in data set [2], the “Alpha amylase inhibitory activity (in words)” value is recorded as “strong inhibitory activity; also recorded: mild inhibition”, the Maltose released was 2.095 mg/mL and the inhibition at 10000 µg/mL (stock) is 39.7%.

For the molecule `Cc1sc2nc3c(c(N)c2c1C)CCCCC3` [BN-4, 2,3-dimethyl-6,7,8,9-tetrahydro-5H-cyclohepta[b]thieno[3,2-e]pyridin-4-amine], in data set [1] (A549, MTT, 48 hrs), the IC50 is 36.3 µg/mL (≈ 147 µM). Also, in data set [2], the Maltose released amounted to 3.496 mg/mL and the inhibition at 10000 µg/mL (stock) is -2.01%.

For the molecule `Nc1c2c(nc3sc4c(c13)CCCC4)CCC2` [BN-5, 2,3,6,7,8,9-Hexahydro-1H-benzo[4,5]thieno[2,3-b]cyclopenta[e]pyridin-10-amine], the melting point came out at 221 °C. In data set [1] (A549, MTT, 48 hrs), the IC50 is 144 µg/mL (≈ 591 µM). Moreover, the “Yeast α-glucosidase enzyme inhibitory activity (in words)” value in data set [3] is recorded as “moderate inhibitory activity”. Moreover, in data set [2], the Maltose released was determined as 3.226 mg/mL and the inhibition at 10000 µg/mL (stock) was 4.85%.

As to `Nc1c2c(nc3sc4c(c13)CCCC4)CCCC2` [BN-6, 1,2,3,4,7,8,9,10-Octahydrobenzo[4,5]thieno[2,3-b]quinolin-11-amine], in data set [1] (A549, MTT, 48 hrs), the IC50 was determined as 33.8 µg/mL (≈ 131 µM). For the same molecule, in data set [3], the “Yeast α-glucosidase enzyme inhibitory activity (in words)” value was “moderate inhibitory activity”. Also, in data set [2], the “Alpha amylase inhibitory activity (in words)” value is on record as “mild inhibition”, the Maltose released worked out at 2.548 mg/mL and the inhibition at 10000 µg/mL (stock) is 26.2%.

With `CC1CCc2c(nc3sc4c(c3c2N)CCCC4)C1` (stereo not shown) [BN-7, 8-Methyl-1,2,3,4,7,8,9,10-octahydrobenzo[4,5]thieno[2,3-b]quinolin-11-amine], in data set [1] (A549, MTT, 48 hrs), the IC50 came to 49 µg/mL (≈ 180 µM). Further, in data set [2], the Maltose released amounted to 2.163 mg/mL and the inhibition at 10000 µg/mL (stock) is -0.765%.

As for `Nc1c2c(nc3sc4c(c13)CCCC4)CCCCC2` [BN-8, 2,3,4,7,8,9,10,11-Octahydro-1H-benzo[4,5]thieno[2,3-b]cyclohepta [e]pyridin-12-amine], the IC50 in data set [1] (A549, 48 h) is 186 µg/mL (≈ 683 µM). For the same molecule, in data set [2], the “Alpha amylase inhibitory activity (in words)” value is given as “strong inhibitory activity” and the Maltose released was determined as 0.913 mg/mL.

On to `Nc1c2c(nc3sc4c(c13)CCC4)CCC2` [BN-13, 1,2,3,6,7,8-hexahydrocyclopenta [b]cyclopenta[4,5] thieno[3,2-e]pyridin-9-amine], for which the melting point was 245 °C. For the same molecule, the IC50 in data set [1] (A549, 48 h) came out at 83.2 µg/mL (≈ 361 µM). Besides, the “Yeast α-glucosidase enzyme inhibitory activity (in words)” value in data set [3] is listed as “moderate inhibitory activity”. Besides, in data set [2], the “Alpha amylase inhibitory activity (in words)” value is reported as “strong inhibitory activity” and the Maltose released was determined as 1.278 mg/mL.

With `Nc1c2c(nc3sc4c(c13)CCC4)CCCC2` [BN-14, 2,3,6,7,8,9-Hexahydro-1H-cyclopenta[4,5]thieno[2,3-b]quinolin-10-amine], in data set [1] (A549, MTT, 48 hrs), the IC50 came to 79.4 µg/mL (≈ 325 µM). In addition, in data set [3], the “Yeast α-glucosidase enzyme inhibitory activity (in words)” value is on record as “strong significant inhibitory activity”, the inhibition at 39.063 µg/mL came to 19.6%, the inhibition at 78.125 µg/mL turned out to be 25.84 ± 0.13% and the inhibition at 156.25 µg/mL is 33.31 ± 0.04%. In data set [3], the inhibition at 312.5 µg/mL worked out at 42.8 ± 1.38%, the inhibition at 625 µg/mL came out at 50.3 ± 3.39%, the inhibition at 1250 µg/mL is 63.8 ± 1.71% and the inhibition at 2500 µg/mL turned out to be 67.8 ± 1.18%. Moreover, in data set [3], the inhibition at 5000 µg/mL amounted to 72.2 ± 1.87%. In addition, in data set [2], the Maltose released was 2.210 mg/mL and the inhibition at 10000 µg/mL (stock) is -3.06%.

`Nc1c2c(nc3sc4c(c13)CCC4)CCCCC2` [BN-16, 1,2,3,6,7,8,9,10-Octahydrocyclohepta[b]cyclopenta[4,5]thieno[3,2-e]pyridine-11-amine]: in data set [1] (A549, MTT, 48 hrs), the IC50 came to 39.8 µg/mL (≈ 154 µM). Further, in data set [2], the “Alpha amylase inhibitory activity (in words)” value is “mild inhibition”, the Maltose released was found to be 1.492 mg/mL and the inhibition at 10000 µg/mL (stock) was 31.5%.
